Assays:
in vivo [1] = conditions: both, dog, serum, oral, 15 mg/kg BW
Procedure: (§1) Methodology: The study was designed to test the feeding of melatonin on the absorption of cephalexin. Dogs (n=24, Body Weight (BW) range: 7-14 kg, age range: 1.5 to 14 yrs) were divided into a test group and a control group. The respective groups were balanced for gender.
(§2) The test group received a single dose of melatonin (1 mg/kg BW) at 12:00 pm, followed by a single dose of cephalexin (15 mg/kg BW) between 1:00 and 2:00 pm. Dosing with melatonin and cephalexin were both by oral administration to the dogs. The study evaluated cephalexin absorption by determining the pharmacokinetics of cephalexin appearance in serum subsequent to the melatonin administration. […] Samples for pharmacokinetic analysis were taken at 15, 30, 45, and 60 min, as well as 1.5, 2, 2.5, 3, 3.5, 4, 6, and 8 hours after oral dosing of cephalexin. Cephalexin concentration was determined by high pressure liquid chromatograph. Serum melatonin content was analyzed before and after the oral administration time, e.g., at −5, −3, −1, −0.5 hour before, 0 (dosing time), and at 0.5, 1, 2, 3, 4, and 6 hours after oral dosing of melatonin. Melatonin was quantified by radioimmunoassay procedures.

in vivo [2] = conditions: both, Labrador Retriever, dog, serum, oral, 15 mg/kg BW
Procedure: (§3) Methology: The study used n=40 Labrador Retriever dogs (BW range: 21-40 kg) to test the oral ingestion of melatonin compared to no-melatonin placebo control on the absorption of cephalexin, an antibiotic that also serves as a marker substrate for small peptides. The dogs were balanced for gender and the ages ranged from 1.5 to 9 years old. The study evaluated cephalexin absorption by orally administering a single 15 mg/kg BW dose of cephalexin to dogs at 2:00 pm, and subsequently determining the pharmakinetics of cephalexin appearance in serum. Dogs were randomized into 5 different treatment groups and received a single oral dose of melatonin (0.01, 0.1, 1, or 3 mg/kg BW) in a gelatin capsule or placebo simultaneously as the cephalexin dose. The oral dose was immediately followed by an oral administration of 60 mL of water by a 60 mL irrigation syringe. The melatonin dose diluent and placebo pill were the inert carrier, avicel. Cephalexin pharmakinetics were analyzed at 30 and 60 min after dosing and 1.5, 2, 2.5, 3, 4, and 6 hours after oral dosing of cephalexin. Cephalexin concentration was determined by high pressure liquid chromatograph.

[3] = Serum melatonin pharmacokinetics after oral melatonin, radioimmunoassay (Example 1); format: in vivo, Dogs
Description: Melatonin was quantified by radioimmunoassay procedures.

[4] = Day/night activity, Actiwatch monitor, 24 h before and 48 h after oral melatonin (Example 2); format: in vivo, Labrador Retriever dogs; conditions: for Activity (Actiwatch): start of day 2
Procedure: Dogs were fitted with an Actiwatch monitor 24 hours before oral ingestion of one of the melatonin doses, specifically at 2 PM on day 1. Following the oral administration of melatonin, the activity monitoring continued for another 48 hours, at which time the monitors were removed and the data collected for analysis. The dogs were exposed to 11.5 h light:12.5 h dark cycle, in which kennel lighting and natural light was combined over the 11.5 hour period. In the morning the light cycle began with exposure to kennel lighting at 6 AM and darkness onset occurred at 5:30 PM with sunset. For data analysis, activity was separated into three periods of time, afternoon light phase (2 PM to 5:30 PM, 3.5 h duration), dark phase (5:30 PM to 6 AM, 12.5 h duration), and morning light phase (6 AM to 2 PM, 8 h duration). For data analysis purposes, a 24 hour period is from 2:00 PM to 1:59 PM.

[5] = melatonin 1 mg/kg BW oral before cephalexin 15 mg/kg BW oral
Procedure: as §1, §2

[6] = both, Labrador Retriever, dog, in vivo, po, 3 mg/kg
Procedure: as §3

[7] = Titration of oral melatonin dose on cephalexin absorption: serum pharmacokinetics of cephalexin (Example 2)
Procedure: as §3

Structure (SMILES): CC1=C(C(=O)O)N2C(=O)[C@@H](NC(=O)[C@H](N)c3ccccc3)[C@H]2SC1 [Cephalexin, cephalexin]
- concentration at 0.25 h (in vivo [1]): 790 ng/mL
- concentration at 0.5 h (in vivo [1]): 4170 ng/mL
- concentration at 0.75 h (in vivo [1]): 8190 ng/mL
- concentration at 1 h (in vivo [1]): 10900 ng/mL
- concentration at 1.5 h (in vivo [1]): 13900 ng/mL
- concentration at 2 h (in vivo [1]): 13700 ng/mL
- concentration at 2.5 h (in vivo [1]): 14300 ng/mL
- concentration at 3 h (in vivo [1]): 13000 ng/mL
- concentration at 3.5 h (in vivo [1]): 11800 ng/mL
- concentration at 4 h (in vivo [1]): 9900 ng/mL
- concentration at 6 h (in vivo [1]): 5910 ng/mL
- concentration at 8 h (in vivo [1]): 3730 ng/mL
- concentration at 0.5 h (in vivo [2]): 2010 ng/mL
- concentration at 1 h (in vivo [2]): 6280 ng/mL
- concentration at 1.5 h (in vivo [2]): 9920 ng/mL
- concentration at 2 h (in vivo [2]): 11800 ng/mL
- concentration at 2.5 h (in vivo [2]): 12400 ng/mL
- concentration at 3 h (in vivo [2]): 12200 ng/mL
- concentration at 4 h (in vivo [2]): 11300 ng/mL
- concentration at 6 h (in vivo [2]): 7570 ng/mL

Structure (SMILES): COc1ccc2[nH]cc(CCNC(C)=O)c2c1 [Melatonin, 5-methoxy-N-acetyltryptamine]
- concentration at 1 h ([3]; dog, serum, melatonin 1 mg/kg BW oral at 12:00 pm, sample 1:00 pm): 9.55 ng/mL
- concentration at 1.5 h ([3]; dog, serum, melatonin 1 mg/kg BW oral at 12:00 pm, sample 1:30 pm): 8.97 ng/mL
- concentration at 2 h ([3]; dog, serum, melatonin 1 mg/kg BW oral at 12:00 pm, sample 2:00 pm): 4.79 ng/mL
- concentration at 3 h ([3]; dog, serum, melatonin 1 mg/kg BW oral at 12:00 pm, sample 3:00 pm): 1.46 ng/mL
- concentration at 4 h ([3]; dog, serum, melatonin 1 mg/kg BW oral at 12:00 pm, sample 4:00 pm): 0.747 ng/mL
- concentration at 5 h ([3]; dog, serum, melatonin 1 mg/kg BW oral at 12:00 pm, sample 5:00 pm): 0.273 ng/mL
- concentration at 7 h ([3]; dog, serum, melatonin 1 mg/kg BW oral at 12:00 pm, sample 7:00 pm): 0.0885 ng/mL
- concentration at -3 h ([3]; dog, serum, melatonin 1 mg/kg BW oral at 12:00 pm, sample 9:00 am (before dosing)): 0.0039 ng/mL
- concentration at -1 h ([3]; dog, serum, melatonin 1 mg/kg BW oral at 12:00 pm, sample 11:00 am (before dosing)): 0.0005 ng/mL
- concentration at 0 h ([3]; dog, serum, melatonin 1 mg/kg BW oral at 12:00 pm, sample 12:00 pm (dosing time)): 0.0184 ng/mL
- concentration at 0.5 h ([3]; dog, serum, melatonin 1 mg/kg BW oral at 12:00 pm, sample 12:30 pm): 10.7 ng/mL
- Melatonin appearance in serum ([3]; dogs that ingested melatonin 1 mg/kg BW, versus baseline levels of control dogs): increased significantly for up to 6 hours after ingestion
- Activity (Actiwatch) ([4]; melatonin 0.01 mg/kg BW oral at 2 PM, Afternoon Light Phase (2 PM-5:30 PM), Day 1 (before dosing)): 30064
- Activity (Actiwatch) ([4]; melatonin 0.01 mg/kg BW oral at 2 PM, Afternoon Light Phase (2 PM-5:30 PM), Day 2): 44935
- Activity (Actiwatch) ([4]; melatonin 0.01 mg/kg BW oral at 2 PM, Afternoon Light Phase (2 PM-5:30 PM), Day 3): 39386
- Activity (Actiwatch) ([4]; melatonin 0.01 mg/kg BW oral at 2 PM, Dark Phase (5:30 PM-6 AM), Day 1 (before dosing)): 32346
- Activity (Actiwatch) ([4]; melatonin 0.01 mg/kg BW oral at 2 PM, Dark Phase (5:30 PM-6 AM), Day 2): 30930
- Activity (Actiwatch) ([4]; melatonin 0.01 mg/kg BW oral at 2 PM, Dark Phase (5:30 PM-6 AM), Day 3): 34140
- Activity (Actiwatch) ([4]; melatonin 0.01 mg/kg BW oral at 2 PM, Morning Light Phase (6 AM-2 PM), Day 1 (before dosing)): 140160
- Activity (Actiwatch) ([4]; melatonin 0.01 mg/kg BW oral at 2 PM, Morning Light Phase (6 AM-2 PM), Day 2): 128216
- Activity (Actiwatch) ([4]; melatonin 0.01 mg/kg BW oral at 2 PM, Morning Light Phase (6 AM-2 PM), Day 3): 120706
- Activity (Actiwatch) ([4]; melatonin 0.1 mg/kg BW oral at 2 PM, Afternoon Light Phase (2 PM-5:30 PM), Day 1 (before dosing)): 28140
- Activity (Actiwatch) ([4]; melatonin 0.1 mg/kg BW oral at 2 PM, Afternoon Light Phase (2 PM-5:30 PM), Day 2): 30124
- Activity (Actiwatch) ([4]; melatonin 0.1 mg/kg BW oral at 2 PM, Afternoon Light Phase (2 PM-5:30 PM), Day 3): 21497
- Activity (Actiwatch) ([4]; melatonin 0.1 mg/kg BW oral at 2 PM, Dark Phase (5:30 PM-6 AM), Day 1 (before dosing)): 38464
- Activity (Actiwatch) ([4]; melatonin 0.1 mg/kg BW oral at 2 PM, Dark Phase (5:30 PM-6 AM), Day 2): 30753
- Activity (Actiwatch) ([4]; melatonin 0.1 mg/kg BW oral at 2 PM, Dark Phase (5:30 PM-6 AM), Day 3): 32849
- Activity (Actiwatch) ([4]; melatonin 0.1 mg/kg BW oral at 2 PM, Morning Light Phase (6 AM-2 PM), Day 1 (before dosing)): 133337
- Activity (Actiwatch) ([4]; melatonin 0.1 mg/kg BW oral at 2 PM, Morning Light Phase (6 AM-2 PM), Day 2): 130972
- Activity (Actiwatch) ([4]; melatonin 0.1 mg/kg BW oral at 2 PM, Morning Light Phase (6 AM-2 PM), Day 3): 99800
- Activity (Actiwatch) ([4]; melatonin 1 mg/kg BW oral at 2 PM, Afternoon Light Phase (2 PM-5:30 PM), Day 1 (before dosing)): 34376
- Activity (Actiwatch) ([4]; melatonin 1 mg/kg BW oral at 2 PM, Afternoon Light Phase (2 PM-5:30 PM), Day 2): 44889
- Activity (Actiwatch) ([4]; melatonin 1 mg/kg BW oral at 2 PM, Afternoon Light Phase (2 PM-5:30 PM), Day 3): 31184
- Activity (Actiwatch) ([4]; melatonin 1 mg/kg BW oral at 2 PM, Dark Phase (5:30 PM-6 AM), Day 1 (before dosing)): 47178
- Activity (Actiwatch) ([4]; melatonin 1 mg/kg BW oral at 2 PM, Dark Phase (5:30 PM-6 AM), Day 2): 26733
- Activity (Actiwatch) ([4]; melatonin 1 mg/kg BW oral at 2 PM, Dark Phase (5:30 PM-6 AM), Day 3): 49958
- Activity (Actiwatch) ([4]; melatonin 1 mg/kg BW oral at 2 PM, Morning Light Phase (6 AM-2 PM), Day 1 (before dosing)): 155482
- Activity (Actiwatch) ([4]; melatonin 1 mg/kg BW oral at 2 PM, Morning Light Phase (6 AM-2 PM), Day 2): 151573
- Activity (Actiwatch) ([4]; melatonin 1 mg/kg BW oral at 2 PM, Morning Light Phase (6 AM-2 PM), Day 3): 126103
- Activity (Actiwatch) ([4]; melatonin 3 mg/kg BW oral at 2 PM, Afternoon Light Phase (2 PM-5:30 PM), Day 1 (before dosing)): 30548
- Activity (Actiwatch) ([4]; melatonin 3 mg/kg BW oral at 2 PM, Afternoon Light Phase (2 PM-5:30 PM), Day 2): 45730
- Activity (Actiwatch) ([4]; melatonin 3 mg/kg BW oral at 2 PM, Afternoon Light Phase (2 PM-5:30 PM), Day 3): 35034
- Activity (Actiwatch) ([4]; melatonin 3 mg/kg BW oral at 2 PM, Dark Phase (5:30 PM-6 AM), Day 1 (before dosing)): 33517
- Activity (Actiwatch) ([4]; melatonin 3 mg/kg BW oral at 2 PM, Dark Phase (5:30 PM-6 AM), Day 2): 35926
- Activity (Actiwatch) ([4]; melatonin 3 mg/kg BW oral at 2 PM, Dark Phase (5:30 PM-6 AM), Day 3): 33492
- Activity (Actiwatch) ([4]; melatonin 3 mg/kg BW oral at 2 PM, Morning Light Phase (6 AM-2 PM), Day 1 (before dosing)): 139265
- Activity (Actiwatch) ([4]; melatonin 3 mg/kg BW oral at 2 PM, Morning Light Phase (6 AM-2 PM), Day 2): 153805
- Activity (Actiwatch) ([4]; melatonin 3 mg/kg BW oral at 2 PM, Morning Light Phase (6 AM-2 PM), Day 3): 117374
- Activity during the dark phase immediately following oral ingestion, compared to placebo ([4]; melatonin 0.01, 0.1, and 1 mg/kg groups): decrease compared to the placebo groups
- Influence on activity, late afternoon light phase (2 pm to 5:30 pm) ([4]; oral melatonin 0.01, 0.1, 1, and 3 mg/kg BW): did not demonstrate any influence of oral melatonin on activity
- Impact on activity in the daylight hours ([4]; oral melatonin 0.01-3 mg/kg BW): does not seem to impact activity of dogs in the daylight hours
- Nighttime activity ([4]; oral melatonin administered in the afternoon): nighttime activity is slightly reduced
- Effect of oral melatonin on absorption of cephalexin [5]: increased the absorption of cephalexin
- Cephalexin AUC greater than placebo group [6]: 45-34
- Amount of cephalexin appearing in the blood compared to the placebo group ([7]; melatonin 0.01 mg/kg BW oral): slightly decreased
- Effect on absorption of cephalexin compared to placebo dogs ([7]; melatonin 0.1, 1, and 3 mg/kg BW oral): an increase in the absorption of cephalexin
